# Laboratory results reported in patent US7176224B2, “Oxazolyl-aryloxyacetic acid derivatives and their use as PPAR agonists” (Eli Lilly and Company, priority 2000, dated 2007).
# Legend:
# huPPARα [1] = assay: Cotransfection assay in CV-1 cells, luciferase reporter; format: cell-based, human; details: GAL4 chimeric system, relative to PPARα agonist reference molecule
# Protocol: (§1) […] binding (ABCD binding) was carried out using SPA technology with PPAR receptors. Tritium-labeled PPARα and PPARγ agonists were used as radioligands for generating displacement curves and IC50 values with compounds of the invention. Cotransfection assays were carried out in CV-1 cells. The reporter plasmid contained an acylCoA oxidase (AOX) PPRE and TK promoter upstream of the luciferase reporter cDNA. Appropriate PPARs and RXRα were constitutively expressed using plasmids containing the CMV promoter. For PPARα and PPARγ, interference by endogenous PPARγ in CV-1 cells was an issue. In order to eliminate such interference, a GAL4 chimeric system was used in which the DNA binding domain of the transfected PPAR was replaced by that of GAL4, and the GAL4 response element was utilized in place of the AOX PPRE. Cotransfection efficacy was determined relative to PPARα agonist and […] reference molecules. Efficacies were determined by computer fit to a concentration-response curve, or in some cases at a single high concentration of agonist (10 μM). For binding or cotransfection studies with receptors other than PPARs, similar assays were carried out using appropriate ligands, receptors, reporter constructs, etc., for that particular receptor.
# (§2) These studies were carried out to evaluate the ability of compounds of the invention to bind to and/or activate various nuclear transcription factors, particularly huPPARα (“hu” indicates “human”) and huPPARγ. These studies provide in vitro data concerning efficacy and selectivity of compounds of the invention. Furthermore, binding and cotransfection data for compounds of the invention were compared with corresponding data for marketed compounds that act on either huPPARα or huPPARγ.
# huPPARα [2] = target: T1, huPPARα (Homo sapiens, UniProt Q07869); assay: DNA-dependent binding (ABCD binding), SPA, radioligand displacement; details: tritium-labeled PPARα agonist radioligand
# T1 sequence (Q07869 1-468): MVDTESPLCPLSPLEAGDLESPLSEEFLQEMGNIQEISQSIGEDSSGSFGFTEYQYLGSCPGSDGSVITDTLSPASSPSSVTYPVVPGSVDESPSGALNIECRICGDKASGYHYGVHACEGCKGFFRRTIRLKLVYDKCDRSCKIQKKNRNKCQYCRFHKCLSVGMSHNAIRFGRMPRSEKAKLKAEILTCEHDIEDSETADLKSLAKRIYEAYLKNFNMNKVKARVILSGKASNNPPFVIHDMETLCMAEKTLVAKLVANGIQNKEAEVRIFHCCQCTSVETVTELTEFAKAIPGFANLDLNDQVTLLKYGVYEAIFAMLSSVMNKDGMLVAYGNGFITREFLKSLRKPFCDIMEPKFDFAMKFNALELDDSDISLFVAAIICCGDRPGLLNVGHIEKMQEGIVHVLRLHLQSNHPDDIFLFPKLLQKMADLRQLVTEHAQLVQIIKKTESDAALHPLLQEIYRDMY
# T1 sequence (P19793 1-462 partner): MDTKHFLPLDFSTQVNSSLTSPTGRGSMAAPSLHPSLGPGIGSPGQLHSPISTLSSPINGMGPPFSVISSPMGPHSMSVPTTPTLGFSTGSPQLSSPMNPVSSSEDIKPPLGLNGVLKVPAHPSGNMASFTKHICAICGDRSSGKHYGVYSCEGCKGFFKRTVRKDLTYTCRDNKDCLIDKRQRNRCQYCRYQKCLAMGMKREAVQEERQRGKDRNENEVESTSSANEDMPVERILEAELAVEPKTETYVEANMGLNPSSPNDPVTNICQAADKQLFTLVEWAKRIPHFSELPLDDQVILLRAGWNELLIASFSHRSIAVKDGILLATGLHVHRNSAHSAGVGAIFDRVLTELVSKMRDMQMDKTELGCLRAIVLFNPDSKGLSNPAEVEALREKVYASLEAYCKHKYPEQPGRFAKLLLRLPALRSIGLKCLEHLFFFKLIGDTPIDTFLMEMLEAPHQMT
# Protocol: as §1, with “For PPARα and PPARγ, interference by endogenous PPARγ in CV-1 cells was an issue.” left out
# as §2
# huPPARγ = target: T2, huPPARγ (Homo sapiens, UniProt P37231); assay: as above; details: tritium-labeled PPARγ agonist radioligand
# T2 sequence (P37231 1-505): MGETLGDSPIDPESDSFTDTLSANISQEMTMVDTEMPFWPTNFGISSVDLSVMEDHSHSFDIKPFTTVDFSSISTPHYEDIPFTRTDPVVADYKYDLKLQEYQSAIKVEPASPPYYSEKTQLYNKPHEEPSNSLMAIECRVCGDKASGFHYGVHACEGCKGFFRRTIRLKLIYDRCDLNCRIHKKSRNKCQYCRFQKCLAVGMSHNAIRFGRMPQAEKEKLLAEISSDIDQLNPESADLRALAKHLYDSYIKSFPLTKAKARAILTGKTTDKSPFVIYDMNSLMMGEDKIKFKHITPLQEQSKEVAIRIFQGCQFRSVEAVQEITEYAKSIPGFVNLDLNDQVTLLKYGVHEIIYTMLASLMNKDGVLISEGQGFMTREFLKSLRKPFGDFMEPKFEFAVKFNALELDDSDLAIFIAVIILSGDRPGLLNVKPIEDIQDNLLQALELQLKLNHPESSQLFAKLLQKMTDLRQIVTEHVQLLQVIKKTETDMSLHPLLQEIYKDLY
# T2 sequence (P19793 1-462 partner): T1 sequence (P19793 1-462 partner)
# Protocol: as §1, with “For PPARα and PPARγ, interference by endogenous PPARγ in CV-1 cells was an issue.” left out
# as §2
structure (smiles),measurement,setting,value
"Cc1oc(-c2cccc(-c3ccc(F)cc3)c2)nc1CCOc1ccc(CC(C)(Oc2ccccc2)C(=O)O)cc1 (stereo not drawn) [Example 4, 3-(4-{2-[2-(4′-Fluorobiphenyl-3-yl)-5-methyloxazol-4-yl]ethoxy}phenyl)-2-methyl-2-phenoxypropionic acid]",huPPARα CTF Efficacy,huPPARα [1],38%
same,IC50,huPPARα [2],147 nM
same,IC50,huPPARγ,41 nM
